Assay results published in US7842671B1, “Peptidomimetic inhibitors of STAT activity and uses thereof” (University of South Florida, priority 2003, dated 2010).

Experiments:
[1] = system: NIH3T3/v-Src; assay: Soft-agar growth of v-Src-transformed fibroblasts; assay type: cell-based, mouse; details: 1 mM every 2-3 days
Experimental: (§1) Cell proliferation, soft-agar growth and Apo-BrdU labeling studies. Proliferating fibroblasts and human tumor cells were counted by phase-contrast microscopy for viable cells (using tyrpan blue exclusion). Colony formation assays in six-well dishes and quantification of colonies by iodonitrotetrazolium violet have been previously described (Turkson, J. et al. (1999)). Treatment of cells with inhibitors was initiated 1 day after seeding cells by adding 75 μl of medium with or without inhibitor, and repeated every two to three days. Apoptosis was measured by Apo-BrdU labeling and following the supplier's (PharMingen; San Diego, Calif.) instructions.
(§2) Previous studies with PY*LKTK-MTS (SEQ ID NO. 1) (Turkson, J. et al., 2001)) confirmed that inhibition of constitutive Stat3 activation blocks Src transformation (Turkson, J. et al. (1998); Turkson, J. et al., (1999); Bromberg, J. R. et al. (1998)).

[2] = target: T1, Stat3 (Mus musculus, UniProt P42227); assay type: cell-based; parameters: nuclear extracts prepared from v-Src-transformed NIH3T3/v-Src; endogenous in cells; host or cells: NIH3T3/v-Src
T1 sequence (P42227 whole entry): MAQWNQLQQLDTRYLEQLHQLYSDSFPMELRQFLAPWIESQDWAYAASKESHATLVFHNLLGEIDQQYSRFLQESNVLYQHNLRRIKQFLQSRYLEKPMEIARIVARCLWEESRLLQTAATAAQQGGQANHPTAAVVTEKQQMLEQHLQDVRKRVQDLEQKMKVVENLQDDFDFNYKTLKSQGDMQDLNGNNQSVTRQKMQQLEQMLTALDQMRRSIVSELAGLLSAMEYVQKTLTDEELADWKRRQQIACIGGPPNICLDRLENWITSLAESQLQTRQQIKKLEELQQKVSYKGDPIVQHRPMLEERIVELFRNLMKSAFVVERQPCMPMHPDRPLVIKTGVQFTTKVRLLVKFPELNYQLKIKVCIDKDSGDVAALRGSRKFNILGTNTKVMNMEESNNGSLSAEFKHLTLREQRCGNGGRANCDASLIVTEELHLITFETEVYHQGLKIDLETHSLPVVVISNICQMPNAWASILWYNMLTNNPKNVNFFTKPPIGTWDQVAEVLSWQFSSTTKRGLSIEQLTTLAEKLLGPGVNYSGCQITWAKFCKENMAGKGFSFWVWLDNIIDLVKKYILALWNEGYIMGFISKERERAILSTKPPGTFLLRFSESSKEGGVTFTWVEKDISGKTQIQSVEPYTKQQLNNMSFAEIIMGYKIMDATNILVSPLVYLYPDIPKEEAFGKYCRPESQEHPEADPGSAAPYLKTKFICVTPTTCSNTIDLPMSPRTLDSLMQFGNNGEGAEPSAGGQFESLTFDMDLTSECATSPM
Experimental: (§3) Nuclear extract preparation and gel shift assays. Nuclear extracts were prepared from cell lines and used for electrophoretic mobility shift assay (EMSA) as previously described (Garcia, R. et al. (1997); Yu, C. L. et al. (1995); Turkson, J. et al. (1998)). In some cases, cells were pre-treated with peptidomimetics for the indicated times (12-48 h) prior to harvesting for nuclear extract preparation. In other studies, nuclear extracts were pre-incubated with peptidomimetics for 30 min at room temperature prior to incubation with radiolabeled probe. The ^32P-radiolabeled oligonucleotide probes used are hSIE (high affinity sis-inducible element, m67 variant, 5′-[…]-3′) (SEQ ID NO. 3) that binds both Stat1 and Stat3 (Garcia, R. et al. (1997); Wagner B. J. et al. (1990)) and MGFe (mammary gland factor element from the bovine β-casein gene promoter, 5′-[…]-3′) (SEQ ID NO. 4) that binds Stat1 and Stat5 (Gouilleux, F. et al. (1995); Seidel, H. M. et al. (1995)).

[3] = system: NIH3T3/v-Ras; assay: Soft-agar growth of v-Ras-transformed fibroblasts; assay type: cell-based, mouse; details: 1 mM every 2-3 days
Experimental: as §1, §2

[4] = system: Stat3-independent luciferase reporter, pRLSRE; assay type: cell-based; details: 1 mM, Src-transformed mouse cells
Description: (§4) Plasmids. The Stat3 reporter, pLucTKS3, driving expression of the firefly luciferase gene and the Stat3-independent plasmid, pRLSRE, containing two copies of the serum response element (SRE) from the c-fos promoter (Turkson, J. et al. (1998); Zhang, Y. et al. (2000)) that drives renilla luciferase gene (Promega; Madison, Wis.) expression, have been previously described (Turkson, J. et al. (2001); Turkson, J. et al. (1999)).
(§5) Cytosolic extract preparation and luciferase assays. Cytosolic extract preparation from fibroblasts and luciferase assays were previously described (Turkson, J. et al. (1998); Turkson, J. et al. (1999)). Briefly, after two washes with PBS and equilibration for 5 min with 0.5 ml PBS-0.5 mM EDTA, cells were scraped off the dishes and the cell pellet was obtained by centrifugation (4,500×g, 2 min, 4° C.). Cells were resuspended in 0.4 ml of low-salt HEPES buffer (10 mM HEPES (pH 7.8), 10 mM KCl, 0.1 mM EGTA, 0.1 mM EDTA, 1 mM phenylmethylsulfonyl fluoride, and 1 mM dithiothreitol) for 15 min, lysed by the addition of 20 μl of 10% Nonidet P-40 (NP-40), and centrifuged (10,000×g, 30 s, 4° C.) to obtain the cytosolic supernatant, which was used for luciferase assays (Promega) measured with a luminometer. […]

[5] = system: Stat3-dependent luciferase reporter, pLucTKS3; assay type: cell-based; details: 1 mM, Src-transformed mouse cells
Description: as §4, §5

[6] = system: NIH3T3; assay type: cell-based, mouse; details: 1 mM, normal NIH3T3 cells
Experimental: as §1
(§6) Stat3 has an essential role in cell proliferation, and constitutively-active Stat3 is required for growth of transformed and tumor cells that harbor aberrant Stat3 signaling. Studies were performed to determine the effects of the peptidomimetic-mediated inhibition of Stat3 on cell proliferation using trypan blue exclusion for viable cell counts.

[7] = system: NIH3T3/v-Ras; assay type: cell-based, mouse; details: 1 mM
Experimental: as §1, §6

[8] = system: NIH3T3/v-Src; assay type: cell-based, mouse; details: 1 mM, four days
Experimental: as §1, §6

[9] = system: Stat1:Stat1 and Stat3:Stat3 dimers; assay: Dissociation-reassociation analysis of pooled Sf-9 lysates by EMSA; assay type: biochemical; details: 30 min pre-treatment, 30-300 μM PY*LKTK or 3-1000 μM ISS 610, hSIE probe
Experimental: Cytosolic extract preparation and luciferase assays. Cytosolic extract preparation from fibroblasts and luciferase assays were previously described (Turkson, J. et al. (1998); Turkson, J. et al. (1999)). Briefly, after two washes with PBS and equilibration for 5 min with 0.5 ml PBS-0.5 mM EDTA, cells were scraped off the dishes and the cell pellet was obtained by centrifugation (4,500×g, 2 min, 4° C.). Cells were resuspended in 0.4 ml of low-salt HEPES buffer (10 mM HEPES (pH 7.8), 10 mM KCl, 0.1 mM EGTA, 0.1 mM EDTA, 1 mM phenylmethylsulfonyl fluoride, and 1 mM dithiothreitol) for 15 min, lysed by the addition of 20 μl of 10% Nonidet P-40 (NP-40), and centrifuged (10,000×g, 30 s, 4° C.) to obtain the cytosolic supernatant, which was used for luciferase assays (Promega) measured with a luminometer. Cytosolic lysates containing activated Stat3 or Stat1 that were used for dissociation-reassociation analysis were prepared from baculovirus-infected Sf-9 insect cells as previously described (Turkson, J. et al. (2001); Zhang, Y. et al. (2000)). Briefly, cultured dishes of Sf-9 cells were washed twice with ice-cold 1×PBS and then PBS containing 1 mM sodium orthovanadate.

[10] = target: T1, Stat3; assay: EMSA of Stat3 DNA-binding activity in nuclear extracts (hSIE probe); assay type: biochemical; parameters: nuclear extracts (prepared from epidermal growth factor (EGF)-stimulated fibroblasts); endogenous in cells; host or cells: NIH3T3 fibroblasts stimulated with EGF; details: EMSA
Experimental: as §3
Peptidomimetics of the invention can be prepared by replacing prolyl or alanyl residue at the peptide bond that is N-terminal to the phosphotyrosine (Y*) of a peptide such as PY*L or AY*L with an organic substituent such as an optionally substituted aryl or heteroaryl group. The activities of STATs were measured in nuclear extracts (prepared from epidermal growth factor (EGF)-stimulated fibroblasts) as DNA-bound protein complexes by electrophoretic mobility shift assay (EMSA).
From densitometric analysis of band intensities, the IC50 values (concentration of peptidomimetic at which DNA-binding activity is reduced by 50%), which are reported in Table 3, were determined.

For CC(C)CC(NC(=O)C(Cc1ccc(OP(=O)(O)O)cc1)NC(=O)c1ccc(C#N)cc1)C(=O)O (centres unmarked) [ISS 610], the “growth in soft-agar suspension” value [1] was “significantly suppressed”, the “Stat3 activation in Src-transformed fibroblasts (EMSA)” value [2] was “time-dependent reduction of Stat3 activation” and the soft-agar growth [3] was “no effect”. The “induction of the Stat3-independent luciferase reporter pRLSRE” value [4] was “no effect”, the “transcriptional induction of the Stat3-dependent luciferase reporter pLucTKS3” value [5] was “significant suppression” and the cell proliferation [6] was “no effect on cell proliferation”. For the same compound, the cell proliferation [7] was “no effect on cell proliferation”, the cell proliferation [8] was “significantly suppresses proliferation” and the “effect on STAT dimers in mixed Stat1:Stat1 and Stat3:Stat3 lysates” value [9] was “appearance of an additional intermediate band representing Stat1:Stat3 heterodimers”. The “increase in potency in inhibiting Stat3 DNA-binding activity compared to tripeptides PY*L or AY*L” value ([10]; in vitro) was 5 fold and the “effect on Stat3 DNA-binding activity in vitro (in words)” value ([10]; nuclear extracts) was “potent disrupters of active Stat3”.
